ChEMBL document CHEMBL6182944, “Substrate Specificity of the Organic Cation Transporters MATE1 and MATE2K and Functional Overlap with OCT1 and OCT2” (J Med Chem, 2025)

What was measured:
[1] = target: T1, Multidrug and toxin extrusion protein 1 (Homo sapiens, UniProt Q96FL8); experiment: Substrate activity at MATE1 (unknown origin) expressed in HEK293 cells assessed as ratio of uptake by the enantiomer with higher value to enantiomer with lower value at 2.5 uM measured after 1 min by HPLC-MS/MS analysis; type: cell-based; settings: hek293, 1 min
T1 sequence (Q96FL8 whole entry): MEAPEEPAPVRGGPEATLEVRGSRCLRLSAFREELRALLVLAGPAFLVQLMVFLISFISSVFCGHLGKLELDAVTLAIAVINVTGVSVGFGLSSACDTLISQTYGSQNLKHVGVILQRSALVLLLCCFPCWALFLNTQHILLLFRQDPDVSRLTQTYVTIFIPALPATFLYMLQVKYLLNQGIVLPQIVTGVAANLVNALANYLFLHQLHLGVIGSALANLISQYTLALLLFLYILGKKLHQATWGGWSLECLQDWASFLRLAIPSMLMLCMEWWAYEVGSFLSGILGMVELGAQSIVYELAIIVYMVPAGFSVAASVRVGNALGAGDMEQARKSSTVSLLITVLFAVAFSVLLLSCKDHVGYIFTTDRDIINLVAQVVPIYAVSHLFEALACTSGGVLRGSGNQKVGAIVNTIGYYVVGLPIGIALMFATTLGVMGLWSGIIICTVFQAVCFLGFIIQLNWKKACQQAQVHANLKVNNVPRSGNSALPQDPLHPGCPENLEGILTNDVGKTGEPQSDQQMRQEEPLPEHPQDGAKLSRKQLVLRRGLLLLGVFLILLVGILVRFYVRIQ

[2] = target: T2, Multidrug and toxin extrusion protein 2 (Homo sapiens, UniProt Q86VL8); experiment: Substrate activity at MATE2-K (unknown origin) expressed in HEK293 cells assessed as ratio of uptake by the enantiomer with higher value to enantiomer with lower value at 2.5 uM measured after 1 min by HPLC-MS/MS analysis; type: cell-based; settings: hek293, 1 min
T2 sequence (Q86VL8 whole entry): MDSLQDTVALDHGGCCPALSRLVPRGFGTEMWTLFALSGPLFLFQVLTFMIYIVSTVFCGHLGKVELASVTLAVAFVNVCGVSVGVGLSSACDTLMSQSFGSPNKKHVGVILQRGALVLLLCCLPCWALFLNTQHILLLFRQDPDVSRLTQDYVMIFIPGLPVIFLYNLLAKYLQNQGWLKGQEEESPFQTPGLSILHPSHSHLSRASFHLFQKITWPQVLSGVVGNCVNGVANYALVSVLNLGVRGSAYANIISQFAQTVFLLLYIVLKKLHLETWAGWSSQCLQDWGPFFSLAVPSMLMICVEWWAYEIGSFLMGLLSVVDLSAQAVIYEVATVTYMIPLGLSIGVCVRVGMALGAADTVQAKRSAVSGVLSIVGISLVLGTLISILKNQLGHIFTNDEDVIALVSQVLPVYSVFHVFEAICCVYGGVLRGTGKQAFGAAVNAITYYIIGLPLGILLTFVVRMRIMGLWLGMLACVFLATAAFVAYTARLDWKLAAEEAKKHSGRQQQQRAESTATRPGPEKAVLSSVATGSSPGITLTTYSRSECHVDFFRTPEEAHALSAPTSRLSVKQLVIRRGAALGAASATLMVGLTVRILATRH

[3] = target: T2, Multidrug and toxin extrusion protein 2; experiment: Substrate activity at MATE2-K (unknown origin) expressed in HEK293 cells assessed as Vmax (maximum transport velocity) by HPLC-MS/MS analysis; type: cell-based
[4] = target: T1, Multidrug and toxin extrusion protein 1; experiment: Substrate activity at MATE1 (unknown origin) expressed in HEK293 cells assessed as Vmax (maximum transport velocity) by HPLC-MS/MS analysis; type: cell-based
[5] = target: T1, Multidrug and toxin extrusion protein 1; experiment: Substrate activity at MATE1 (unknown origin) expressed in HEK293 cells assessed as intrinsic clearance by measuring ratio of Vmax (maximum transport velocity) over Km measured per mg of protein by HPLC-MS/MS analysis; type: cell-based
[6] = target: T2, Multidrug and toxin extrusion protein 2; experiment: Substrate activity at MATE2-K (unknown origin) expressed in HEK293 cells assessed as intrinsic clearance by measuring ratio of Vmax (maximum transport velocity) over Km measured per mg of protein by HPLC-MS/MS analysis; type: cell-based
MATE1 = target: T3, MATE1 (Homo sapiens, UniProt Q96FL8); experiment: in vitro
T3 sequence (Q96FL8 whole entry): T1 sequence (Q96FL8 whole entry)

MATE2-K = target: T4, MATE2-K (Homo sapiens, UniProt Q86VL8); experiment: in vitro
T4 sequence (Q86VL8 whole entry): T2 sequence (Q86VL8 whole entry)

[7] = HEK293 cells expressing MATE2-K

SMILES	Ratio [1]	Ratio [2]	Vmax [4] [pmol/min]	CL [5] [µL/min]	CL [6] [µL/min]	uptake ratio at 1 min, 2.5 µM (MATE1; HEK293 cells expressing MATE1)	uptake ratio at 1 min, 2.5 µM (MATE2-K; [7])	also measured
O=C(O[C@H]1C[N+]2(CCCOc3ccccc3)CCC1CC2)C(O)(c1cccs1)c1cccs1.[Br-] (mixture of isomers) [ACLIDINIUM BROMIDE]	> 1	> 1						
CN(C)CCc1c[nH]c2ccc(CC3COC(=O)N3)cc12 (racemic)			2992	52.4	32.1			Vmax [3]: 740 pmol/min
C#CCNC1CCc2ccccc21 (racemic)	> 1	> 1						
CNCCC(Oc1ccccc1C)c1ccccc1 (racemic)	1	> 1						
CNCC(O)c1cccc(O)c1 (racemic)	> 1	> 1						
NC1CONC1=O (racemic)	1	> 1						
CC(C)(C)NCC(O)c1ccc(O)c(CO)c1 (racemic) [ALBUTEROL]	> 1	> 1				> 2	> 2	
CCN1CCCC1CNC(=O)c1cc(S(=O)(=O)CC)c(N)cc1OC (racemic) [AMISULPRIDE]	> 1	> 1	238	22.4	17.8	> 2	> 2	
COc1ccccc1OCCNCC(O)COc1cccc2[nH]c3ccccc3c12 (racemic) [CARVEDILOL]	1	> 1						
CN(C)CCCC1(c2ccc(F)cc2)OCc2cc(C#N)ccc21 (racemic) [CITALOPRAM]	> 1	> 1						
Cc1cccc(C)c1OCC(C)N (racemic) [MEXILETINE]	> 1	> 1						uptake ratio at 1 min, 2.5 µM (MATE1; hek293): < 2; uptake ratio at 1 min, 2.5 µM (MATE2-K; hek293): < 2
COc1ccc(C(CN(C)C)C2(O)CCCCC2)cc1 (racemic) [VENLAFAXINE]	> 1	> 1						
CC(CCc1ccc(O)cc1)NCCc1ccc(O)c(O)c1 (centres undefined) [DOBUTAMINE]			2586	29.2	5.71	> 2	> 2	
NCCc1ccc(O)c(O)c1 [DOPAMINE]			10148	19.2	1.27			uptake ratio at 1 min, 2.5 µM (MATE1; hek293): > 2; uptake ratio at 1 min, 2.5 µM (MATE2-K; hek293): > 2
CN(C)CCC=C1c2ccccc2COc2ccccc21 [DOXEPIN]	1	1						
Nc1nc(=O)n([C@@H]2CS[C@H](CO)O2)cc1F [EMTRICITABINE]			4523	4.56	3.02			
CNC[C@H](O)c1ccc(O)c(O)c1 [EPINEPHRINE]			22773	21.1	1.97			uptake ratio at 1 min, 2.5 µM (MATE1; hek293): > 2; uptake ratio at 1 min, 2.5 µM (MATE2-K; hek293): > 2
C[C@H]1N=C(N(C)C)N=C(N)N1 [IMEGLIMIN]			6242	108	34.5	> 2	> 2	
C[N@+]1(CC2CC2)CC[C@]23c4c5ccc(O)c4O[C@H]2C(=O)CC[C@@]3(O)[C@H]1C5 [METHYLNALTREXONE]			56					
CC[C@@H]1C(=O)OC[C@@H]1Cc1cncn1C [PILOCARPINE]						< 2	< 2	
CC(C)NCC(O)COc1cccc2[nH]ccc12 (centres undefined) [PINDOLOL]						> 2	< 2	
NC(=O)C1(N2CCCCC2)CCN(CCCC(=O)c2ccc(F)cc2)CC1 [PIPAMPERONE]						< 2	< 2	
CN1CCN(CC(=O)N2c3ccccc3C(=O)Nc3cccnc32)CC1 [PIRENZEPINE]						> 2	< 2	
